Data from the NIST ThermoML archive (doi:10.1021/je100861u).
± gives the expanded uncertainty stated by the source.

What was measured:
[1] = Liquid; Distillation
[2] = refractive index (Na D-line) (dimensionless); conditions: 293.15 K; 101.33 kPa; Liquid; Standard Abbe refractometry

Structure (SMILES)	Normal boiling temperature [1] [°C]	refractive index [2]
CCCCOC(C)=O [butyl ethanoate]	125.96 ± 0.5	1.3941 ± 0.0007
CC(=O)C(C)O (centres undefined) [2,3-butanolone]	148.38 ± 0.54	1.4198 ± 0.0008
